From the NIST ThermoML archive (doi:10.1021/je060271a)

Settings: 343.15 K, Liquid, Vibrating tube method

CCCCC(=O)OCC(COC(=O)CCCC)(COC(=O)CCCC)COC(=O)CCCC [pentaerythritol tetrapentanoate]
Settings | mass density [kg/m3]
18558 kPa | 992.3
18600 kPa | 992.4
18634 kPa | 992.4
18668 kPa | 992.5
18709 kPa | 992.5
18744 kPa | 992.5
18780 kPa | 992.5
18821 kPa | 992.4
18857 kPa | 992.7
18892 kPa | 992.5
18935 kPa | 992.7
18971 kPa | 992.6
19007 kPa | 992.6
19052 kPa | 992.7
19088 kPa | 992.6
19126 kPa | 992.7
19172 kPa | 992.8
19211 kPa | 992.9
19248 kPa | 992.8
19284 kPa | 992.9
19312 kPa | 992.8
19340 kPa | 992.9
19368 kPa | 992.9
19401 kPa | 992.9
19429 kPa | 992.9
19458 kPa | 993
19491 kPa | 992.9
19520 kPa | 993.1
19549 kPa | 993.1
19579 kPa | 993
19613 kPa | 993
19638 kPa | 993.1
19666 kPa | 993.2
19689 kPa | 993.1
19713 kPa | 993
19737 kPa | 993.1
19761 kPa | 993.2
19789 kPa | 993.2
19813 kPa | 993.2
19836 kPa | 993.2
19864 kPa | 993.2
19888 kPa | 993.3
19912 kPa | 993.3
19941 kPa | 993.3
19964 kPa | 993.3
19988 kPa | 993.4
20017 kPa | 993.3
20042 kPa | 993.4
20066 kPa | 993.3
20095 kPa | 993.4
20119 kPa | 993.6
20143 kPa | 993.5
20173 kPa | 993.5
20197 kPa | 993.5
20222 kPa | 993.5
20251 kPa | 993.5
20276 kPa | 993.5
20301 kPa | 993.6
20330 kPa | 993.7
20355 kPa | 993.4
20381 kPa | 993.7
20410 kPa | 993.7
20436 kPa | 993.7
20461 kPa | 993.5
20487 kPa | 993.7
20517 kPa | 993.6
20542 kPa | 993.6
20568 kPa | 993.7
20598 kPa | 993.7
20629 kPa | 993.8
20660 kPa | 993.8
20687 kPa | 993.8
20713 kPa | 993.9
20740 kPa | 993.9
20770 kPa | 993.8
20797 kPa | 993.9
20823 kPa | 993.8
20854 kPa | 993.9
20880 kPa | 994
20907 kPa | 993.9
20939 kPa | 994
20965 kPa | 994
20992 kPa | 994.1
21020 kPa | 993.9
21052 kPa | 994.1
21079 kPa | 994.1
21106 kPa | 994.1
21254 kPa | 994.2
21281 kPa | 994.3
21309 kPa | 994.2
21342 kPa | 994.3
21370 kPa | 994.3
22531 kPa | 995.1
22626 kPa | 995.2
22664 kPa | 995
22696 kPa | 995.3
23251 kPa | 995.5
23324 kPa | 995.7
23466 kPa | 995.7
23985 kPa | 996.2
24021 kPa | 996
24064 kPa | 996
24136 kPa | 996.2
24180 kPa | 996.1
24216 kPa | 996.2
24253 kPa | 996.2
24297 kPa | 996.3
24334 kPa | 996.4
24371 kPa | 996.3
24415 kPa | 996.2
24452 kPa | 996.3
24490 kPa | 996.5
24529 kPa | 996.4
24574 kPa | 996.5
24612 kPa | 996.4
24650 kPa | 996.5
24696 kPa | 996.4
24734 kPa | 996.4
24772 kPa | 996.5
24856 kPa | 996.5
24895 kPa | 996.7
24934 kPa | 996.7
24981 kPa | 996.8
25274 kPa | 996.9
25314 kPa | 997
25354 kPa | 996.9
25839 kPa | 997.2
25895 kPa | 997.4
26210 kPa | 997.4
26261 kPa | 997.5
26310 kPa | 997.5
26350 kPa | 997.5
26385 kPa | 997.6
26426 kPa | 997.6
26460 kPa | 997.6
26502 kPa | 997.8
26536 kPa | 997.7
26571 kPa | 997.8
26607 kPa | 997.7
26649 kPa | 997.7
26684 kPa | 997.9
26720 kPa | 997.9
26756 kPa | 997.9
26800 kPa | 997.9
26835 kPa | 998
26871 kPa | 998
26914 kPa | 998
26950 kPa | 998
26986 kPa | 998
27029 kPa | 998.1
27065 kPa | 998.2
27101 kPa | 998
27145 kPa | 998.2
27182 kPa | 998.1
27219 kPa | 998.2
27256 kPa | 998.2
27301 kPa | 998.2
27339 kPa | 998.2
27376 kPa | 998.2
27421 kPa | 998.2
27458 kPa | 998.2
